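These data come from cells grown in 96-well plates and exposed to compound for 48 hours at five concentrations. TGI: total growth inhibition.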
Experiments:
Test in all cases: growth of human tumour cells (NCI), 48 h
HCT-116 colon = system: HCT-116 colon
HOP-62 NSCLC = system: HOP-62 NSCLC
MCF7 breast = system: MCF7 breast
RXF 393 renal = system: RXF 393 renal
COLO 205 colon = system: COLO 205 colon
CCRF-CEM leukemia = system: CCRF-CEM leukemia
SK-MEL-28 melanoma = system: SK-MEL-28 melanoma
HT29 colon = system: HT29 colon
HOP-92 NSCLC = system: HOP-92 NSCLC
K-562 leukemia = system: K-562 leukemia
HCT-15 colon = system: HCT-15 colon
MDA-MB-231 breast = system: MDA-MB-231 breast
KM12 colon = system: KM12 colon
SNB-19 CNS = system: SNB-19 CNS
PC-3 prostate = system: PC-3 prostate
SF-268 CNS = system: SF-268 CNS
M14 melanoma = system: M14 melanoma
NCI-H522 lung = system: NCI-H522 lung
MDA-MB-435 = system: MDA-MB-435
786-0 renal = system: 786-0 renal
HCC-2998 colon = system: HCC-2998 colon
NCI-H23 lung = system: NCI-H23 lung
OVCAR-3 ovarian = system: OVCAR-3 ovarian
SNB-75 CNS = system: SNB-75 CNS
TK-10 renal = system: TK-10 renal
UACC-62 melanoma = system: UACC-62 melanoma
SW-620 colon = system: SW-620 colon
MOLT-4 leukemia = system: MOLT-4 leukemia
SR leukemia = system: SR leukemia
SF-539 CNS = system: SF-539 CNS
NCI/ADR-RES ovarian = system: NCI/ADR-RES ovarian
LOX IMVI melanoma = system: LOX IMVI melanoma
EKVX NSCLC = system: EKVX NSCLC
HS 578T breast = system: HS 578T breast
SK-MEL-5 melanoma = system: SK-MEL-5 melanoma
NCI-H460 lung = system: NCI-H460 lung
RPMI-8226 leukemia = system: RPMI-8226 leukemia
UO-31 renal = system: UO-31 renal
CAKI-1 renal = system: CAKI-1 renal
T-47D breast = system: T-47D breast
MDA-N = system: MDA-N
OVCAR-8 ovarian = system: OVCAR-8 ovarian
U251 CNS = system: U251 CNS
SK-OV-3 ovarian = system: SK-OV-3 ovarian
HL-60(TB) leukemia = system: HL-60(TB) leukemia
ACHN renal = system: ACHN renal
A549 NSCLC = system: A549 NSCLC
A498 renal = system: A498 renal
SF-295 CNS = system: SF-295 CNS
IGROV1 ovarian = system: IGROV1 ovarian
SK-MEL-2 melanoma = system: SK-MEL-2 melanoma
OVCAR-5 ovarian = system: OVCAR-5 ovarian
SN12C renal = system: SN12C renal
UACC-257 melanoma = system: UACC-257 melanoma
BT-549 breast = system: BT-549 breast
DU-145 prostate = system: DU-145 prostate
OVCAR-4 ovarian = system: OVCAR-4 ovarian
NCI-H226 lung = system: NCI-H226 lung

Structure (SMILES): O=C(O)Cc1cc(F)ccc1C(=O)O
- TGI (HCT-116 colon): > 100 µM
- TGI (HOP-62 NSCLC): > 100 µM
- TGI (MCF7 breast): > 100 µM
- TGI (RXF 393 renal): > 100 µM
- TGI (COLO 205 colon): > 100 µM
- TGI (CCRF-CEM leukemia): > 100 µM
- TGI (SK-MEL-28 melanoma): > 100 µM
- TGI (HT29 colon): > 100 µM
- TGI (HOP-92 NSCLC): > 100 µM
- TGI (K-562 leukemia): > 100 µM
- TGI (HCT-15 colon): > 100 µM
- TGI (MDA-MB-231 breast): > 100 µM
- TGI (KM12 colon): > 100 µM
- TGI (SNB-19 CNS): > 100 µM
- TGI (PC-3 prostate): > 100 µM
- TGI (SF-268 CNS): > 100 µM
- TGI (M14 melanoma): > 100 µM
- TGI (NCI-H522 lung): > 100 µM
- TGI (MDA-MB-435): > 100 µM
- TGI (786-0 renal): > 100 µM
- TGI (HCC-2998 colon): > 100 µM
- TGI (NCI-H23 lung): > 100 µM
- TGI (OVCAR-3 ovarian): > 100 µM
- TGI (SNB-75 CNS): > 100 µM
- TGI (TK-10 renal): > 100 µM
- TGI (UACC-62 melanoma): > 100 µM
- TGI (SW-620 colon): > 100 µM
- TGI (MOLT-4 leukemia): > 100 µM
- TGI (SR leukemia): > 100 µM
- TGI (SF-539 CNS): > 100 µM
- TGI (NCI/ADR-RES ovarian): > 100 µM
- TGI (LOX IMVI melanoma): > 100 µM
- TGI (EKVX NSCLC): > 100 µM
- TGI (HS 578T breast): > 100 µM
- TGI (SK-MEL-5 melanoma): > 100 µM
- TGI (NCI-H460 lung): > 100 µM
- TGI (RPMI-8226 leukemia): > 100 µM
- TGI (UO-31 renal): > 100 µM
- TGI (CAKI-1 renal): > 100 µM
- TGI (T-47D breast): > 100 µM
- TGI (MDA-N): > 100 µM
- TGI (OVCAR-8 ovarian): > 100 µM
- TGI (U251 CNS): > 100 µM
- TGI (SK-OV-3 ovarian): > 100 µM
- TGI (HL-60(TB) leukemia): > 100 µM
- TGI (ACHN renal): > 100 µM
- TGI (A549 NSCLC): > 100 µM
- TGI (A498 renal): > 100 µM
- TGI (SF-295 CNS): > 100 µM
- TGI (IGROV1 ovarian): 75.9 µM
- TGI (SK-MEL-2 melanoma): > 100 µM
- TGI (OVCAR-5 ovarian): > 100 µM
- TGI (SN12C renal): > 100 µM
- TGI (UACC-257 melanoma): > 100 µM
- TGI (BT-549 breast): > 100 µM
- TGI (DU-145 prostate): > 100 µM

Structure (SMILES): C#CCCOC(=O)CC1=C(C)/C(=C/c2ccc(S(C)=O)cc2)c2ccc(F)cc21 (centres undefined)
- TGI (HCT-116 colon): 32.3 µM
- TGI (HOP-62 NSCLC): > 100 µM
- TGI (MCF7 breast): 37.8 µM
- TGI (RXF 393 renal): 84.7 µM
- TGI (COLO 205 colon): 32.9 µM
- TGI (CCRF-CEM leukemia): 35 µM
- TGI (HOP-92 NSCLC): 26.1 µM
- TGI (K-562 leukemia): 35.3 µM
- TGI (HCT-15 colon): 27.1 µM
- TGI (MDA-MB-231 breast): 26 µM
- TGI (KM12 colon): 27.3 µM
- TGI (SNB-19 CNS): 29.6 µM
- TGI (PC-3 prostate): 28.7 µM
- TGI (SF-268 CNS): 50 µM
- TGI (M14 melanoma): 33.1 µM
- TGI (NCI-H522 lung): 47 µM
- TGI (MDA-MB-435): 17.4 µM
- TGI (786-0 renal): 44.7 µM
- TGI (HCC-2998 colon): 22.3 µM
- TGI (NCI-H23 lung): 68.9 µM
- TGI (OVCAR-3 ovarian): 33.8 µM
- TGI (SNB-75 CNS): 44.8 µM
- TGI (TK-10 renal): 83.3 µM
- TGI (UACC-62 melanoma): 27.4 µM
- TGI (OVCAR-4 ovarian): 43 µM
- TGI (SW-620 colon): 29.9 µM
- TGI (MOLT-4 leukemia): 44.1 µM
- TGI (SR leukemia): 22.1 µM
- TGI (NCI-H226 lung): 43.3 µM
- TGI (SF-539 CNS): 30.5 µM
- TGI (NCI/ADR-RES ovarian): 36 µM
- TGI (LOX IMVI melanoma): 33.1 µM
- TGI (EKVX NSCLC): 71.9 µM
- TGI (HS 578T breast): 40.4 µM
- TGI (SK-MEL-5 melanoma): 24.7 µM
- TGI (NCI-H460 lung): 35.4 µM
- TGI (RPMI-8226 leukemia): 32.4 µM
- TGI (UO-31 renal): 33.6 µM
- TGI (CAKI-1 renal): 65.4 µM
- TGI (T-47D breast): 53.7 µM
- TGI (MDA-N): 21 µM
- TGI (OVCAR-8 ovarian): 42.8 µM
- TGI (U251 CNS): 29.4 µM
- TGI (SK-OV-3 ovarian): 84.3 µM
- TGI (HL-60(TB) leukemia): 20.7 µM
- TGI (ACHN renal): 44.3 µM
- TGI (A498 renal): 30.4 µM
- TGI (SF-295 CNS): 29.4 µM
- TGI (IGROV1 ovarian): 83.1 µM
- TGI (SK-MEL-2 melanoma): 30.5 µM
- TGI (OVCAR-5 ovarian): > 100 µM
- TGI (SN12C renal): 35.6 µM
- TGI (UACC-257 melanoma): 29.7 µM
- TGI (BT-549 breast): 30.5 µM
- TGI (DU-145 prostate): 31.4 µM

Structure (SMILES): COC1=CC(=O)c2c(c(-c3csc(C)n3)cn2C)C1=O
- TGI (HCT-116 colon): > 77.5 µM
- TGI (HOP-62 NSCLC): > 68.4 µM
- TGI (MCF7 breast): > 69.5 µM
- TGI (RXF 393 renal): 43.3 µM
- TGI (COLO 205 colon): > 71.1 µM
- TGI (CCRF-CEM leukemia): > 94.4 µM
- TGI (SK-MEL-28 melanoma): > 100 µM
- TGI (HT29 colon): 91.6 µM
- TGI (HOP-92 NSCLC): > 100 µM
- TGI (K-562 leukemia): > 100 µM
- TGI (HCT-15 colon): > 52.5 µM
- TGI (MDA-MB-231 breast): > 86.6 µM
- TGI (KM12 colon): > 100 µM
- TGI (SNB-19 CNS): > 81.2 µM
- TGI (PC-3 prostate): > 68.6 µM
- TGI (SF-268 CNS): > 100 µM
- TGI (M14 melanoma): > 100 µM
- TGI (NCI-H522 lung): 91.4 µM
- TGI (MDA-MB-435): 26.8 µM
- TGI (786-0 renal): > 76.7 µM
- TGI (HCC-2998 colon): > 100 µM
- TGI (NCI-H23 lung): 15 µM
- TGI (OVCAR-3 ovarian): 36.4 µM
- TGI (SNB-75 CNS): 19 µM
- TGI (TK-10 renal): > 100 µM
- TGI (UACC-62 melanoma): 42.5 µM
- TGI (OVCAR-4 ovarian): > 100 µM
- TGI (SW-620 colon): > 100 µM
- TGI (MOLT-4 leukemia): > 100 µM
- TGI (SR leukemia): > 100 µM
- TGI (NCI-H226 lung): > 100 µM
- TGI (SF-539 CNS): 54.7 µM
- TGI (NCI/ADR-RES ovarian): > 79.1 µM
- TGI (LOX IMVI melanoma): > 100 µM
- TGI (EKVX NSCLC): 77.9 µM
- TGI (HS 578T breast): > 100 µM
- TGI (SK-MEL-5 melanoma): 4.97 µM
- TGI (NCI-H460 lung): 19.9 µM
- TGI (RPMI-8226 leukemia): > 19.8 µM
- TGI (UO-31 renal): > 73.4 µM
- TGI (CAKI-1 renal): > 73.5 µM
- TGI (T-47D breast): > 64.3 µM
- TGI (MDA-N): 35.1 µM
- TGI (OVCAR-8 ovarian): > 94.8 µM
- TGI (U251 CNS): > 100 µM
- TGI (SK-OV-3 ovarian): > 100 µM
- TGI (HL-60(TB) leukemia): 23.9 µM
- TGI (ACHN renal): > 71.9 µM
- TGI (A549 NSCLC): > 41.6 µM
- TGI (A498 renal): 72.6 µM
- TGI (SF-295 CNS): > 67.1 µM
- TGI (IGROV1 ovarian): 72.2 µM
- TGI (SK-MEL-2 melanoma): > 63.8 µM
- TGI (OVCAR-5 ovarian): > 95 µM
- TGI (SN12C renal): > 68.9 µM
- TGI (UACC-257 melanoma): 32.6 µM
- TGI (BT-549 breast): > 100 µM
- TGI (DU-145 prostate): > 45.9 µM

From PubChem BioAssay (NCI)
